The record followed here is patent US10689367B2, “Triazole pyridyl compounds as agonists of the APJ receptor” (AMGEN INC., priority 2016, dated 2020).

human APJ receptor, sequence (P35414 whole entry): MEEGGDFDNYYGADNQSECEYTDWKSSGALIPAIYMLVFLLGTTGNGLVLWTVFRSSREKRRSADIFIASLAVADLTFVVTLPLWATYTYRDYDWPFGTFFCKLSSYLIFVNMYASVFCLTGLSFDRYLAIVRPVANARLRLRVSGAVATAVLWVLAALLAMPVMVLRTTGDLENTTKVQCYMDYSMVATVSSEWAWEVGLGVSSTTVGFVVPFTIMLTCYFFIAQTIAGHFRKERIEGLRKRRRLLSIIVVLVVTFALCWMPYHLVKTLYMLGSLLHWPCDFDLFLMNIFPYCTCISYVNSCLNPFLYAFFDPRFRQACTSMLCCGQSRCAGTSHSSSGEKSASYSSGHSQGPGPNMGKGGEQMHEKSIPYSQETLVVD

The test system of one test is heart failure rats. The test can be described thus: Cardiac function in heart failure rats in vivo with ACE inhibitor captopril, with or without APJ agonist. More on the design: species or system rat. The following applies: captopril alone, acute settings. From the text:
The interaction between […] (ACE2) and Apelin biology is complicated. To investigate the interaction between the Apelin-APJ and ACE signalling pathways, we examined the improvement in cardiac function with APJ small molecule agonists in the presence of ACE inhibitor captopril in heart failure rats in vivo. […] However, in the presence of an APJ agonist, there was a shift in potency to the left with marked improvement in contractility and ejection fraction without changes in heart rate. These findings provide a new reference for the understanding of the regulation of ACE2 for the renin angiotensin aldosterone system (RAAS), independent of AT1R signaling and offer new potential drug targets for the treatment of diseases such as hypertension and heart failure. This work clearly establishes that combination of an agonist of the APJ receptor with an ARB such as losartan and/or with an ACE inhibitor such as captopril which may play an important role in providing greater efficacy in treating heart failure patients, for example in improving contractility and ejection fraction without changing the heart rate.
In the case of `C[C@H](CS)C(=O)N1CCC[C@H]1C(=O)O` [Captopril, captopril], the “improvement in contractility or ejection fraction” value is “does not show a marked improvement in contractility or ejection fraction”.

The target in a further test is human APJ receptor (Homo sapiens (Human), UniProt P35414). Description: [35S]GTPγS binding assay on membranes from CHO cells stably expressing human APJ receptor. It is filed as biochemical. The following applies: membranes of CHO cells stably expressing human APJ receptor, read-out: Activity hAPJ SPA EC50 IP. The method in brief:
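[35S]GTPγS binding measured on membranes from CHO cells stably expressing FLAG-tagged human APJ, with GDP, MgCl2 and NaCl levels optimized beforehand. Incubation 90 min at RT, imager read-out; EC50 from non-linear regression, averaged over several independent experiments.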
Consider `COc1cccc(-c2nnc(NS(=O)(=O)[C@@H](C)[C@@H](OC(C)C)c3ncc(C)cn3)n2C[C@H]2CCCCO2)n1` (single isomer, unassigned) [Example 300.0, (1S,2S)-1-isopropoxy-N-(5-(6-methoxypyridin-2-yl)-4-(((R)-tetrahydro-2H-pyran-2-yl)methyl)-4H-1,2,4-triazol-3-yl)-1-(5-methylpyrimidin-2-yl)propane-2-sulfonamide or (1S,2S)-1-isopropoxy-N-(5-(6-methoxypyridin-2-yl)-4-(((S)-tetrahydro-2H-pyran-2-yl)methyl)-4H-1,2,4-triazol-3-yl)-1-(5-methylpyrimidin-2-yl)propane-2-sulfonamide], for which the EC50 was 14 nM.

Take `COc1cccc(-c2nnc(NS(=O)(=O)[C@@H](C)[C@H](C)c3ncc(Cl)cn3)n2[C@@H](C)c2ncc(C)o2)n1` (single isomer, unassigned) [Example 258.0, (2S,3R)-3-(5-chloro-2-pyrimidinyl)-N-(5-(6-methoxy-2-pyridinyl)-4-((1S)-1-(5-methyl-1,3-oxazol-2-yl)ethyl)-4H-1,2,4-triazol-3-yl)-2-butanesulfonamide or (2S,3R)-3-(5-chloro-2-pyrimidinyl)-N-(5-(6-methoxy-2-pyridinyl)-4-((1R)-1-(5-methyl-1,3-oxazol-2-yl)ethyl)-4H-1,2,4-triazol-3-yl)-2-butanesulfonamide]: the half-maximal effective concentration (EC50) was 0.88 nM.

With `CC[C@H]([C@@H]1CCCCO1)n1c(NS(=O)(=O)[C@@H](C)[C@H](OC)c2ncc(Cl)cn2)nnc1-c1cccc(OC)n1` (single isomer, unassigned) [Example 328.0], the EC50 came to 0.064 nM.

For the compound `CC[C@@H](c1c(C)noc1C)n1c(NS(=O)(=O)[C@@H](C)[C@@H](OC(C)C)c2ncc(C)cn2)nnc1-c1cccc(OC)n1` (single isomer, unassigned) [Example 220.0, (1S,2S)-N-(4-((1S)-1-(3,5-dimethyl-1,2-oxazol-4-yl)propyl)-5-(6-methoxy-2-pyridinyl)-4H-1,2,4-triazol-3-yl)-1-(5-methyl-2-pyrimidinyl)-1-(2-propanyloxy)-2-propanesulfonamide or (1S,2S)-N-(4-((1R)-1-(3,5-dimethyl-1,2-oxazol-4-yl)propyl)-5-(6-methoxy-2-pyridinyl)-4H-1,2,4-triazol-3-yl)-1-(5-methyl-2-pyrimidinyl)-1-(2-propanyloxy)-2-propanesulfonamide], the EC50 amounted to 55 nM.

As for `CO[C@H](c1ncc(Cl)cn1)[C@H](C)S(=O)(=O)Nc1nnc(-c2ccccn2)n1C` [Example 130.0], the half-maximal effective concentration (EC50) worked out at 350 nM.

For `COc1cccc(-c2nnc(NS(=O)(=O)[C@@H](C)[C@@H](OC(C)C)c3cnc(C)cn3)n2C2CC2)n1` [Example 123.0], the EC50 was found to be 5.6 nM.

On to `COCC(COC)n1c(NS(=O)(=O)[C@@H](C)[C@H](OC)c2ncc(Cl)cn2)nnc1-c1cncc(C)c1` [Example 15.0, (1R,2S)-1-(5-chloro-2-pyrimidinyl)-N-(4-(1,3-dimethoxy-2-propanyl)-5-(5-methyl-3-pyridinyl)-4H-1,2,4-triazol-3-yl)-1-methoxy-2-propanesulfonamiide], for which the EC50 was determined as 30 nM.

Take `Cc1cncc(-c2nnc(NS(=O)(=O)[C@@H](C)[C@@H](OC(C)C)c3ncc(Cl)cn3)n2C2CC2)c1` [Example 129.0]: the EC50 amounted to 66 nM.

As for `COc1cnc([C@@H](C)[C@H](C)S(=O)(=O)Nc2nnc(-c3cccc(OC)n3)n2C2CC2)nc1` [Example 119.0], the EC50 turned out to be 28 nM.

In the case of `CO[C@H](c1cnc(C)cn1)[C@H](C)S(=O)(=O)Nc1nnc(-c2ccccn2)n1C1(C2CC2)CC1` [Example 110.0], the EC50 was 110 nM.

As to `COc1cccc(-c2nnc(NS(=O)(=O)[C@@H](C)[C@H](OC)c3ncc(Cl)cn3)n2[C@@H](C)c2ncn(C)n2)n1` (single isomer, unassigned) [Example 235.0, (1R,2S)-1-(5-chloro-2-pyrimidinyl)-1-methoxy-N-(5-(6-methoxy-2-pyridinyl)-4-((1S)-1-(1-methyl-1H-1,2,4-triazol-3-yl)ethyl)-4H-1,2,4-triazol-3-yl)-2-propanesulfonamide or (1R,2S)-1-(5-chloro-2-pyrimidinyl)-1-methoxy-N-(5-(6-methoxy-2-pyridinyl)-4-((1R)-1-(1-methyl-1H-1,2,4-triazol-3-yl)ethyl)-4H-1,2,4-triazol-3-yl)-2-propanesulfonamide], the EC50 is 100 nM.

On to `CC(C)O[C@@H](c1ncc(Cl)cn1)[C@H](C)S(=O)(=O)Nc1nnc(-c2cccnc2)n1C1CC1` [Example 128.0], for which the concentration giving a half-maximal response (EC50) is 55 nM.

For `COc1cccc(-c2nnc(NS(=O)(=O)[C@@H](C)[C@H](C)c3ncc(Cl)cn3)n2Cc2ccno2)n1` [Example 207.0, (2S,3R)-3-(5-chloro-2-pyrimidinyl)-N-(5-(6-methoxy-2-pyridinyl)-4-(1,2-oxazol-5-ylmethyl)-4H-1,2,4-triazol-3-yl)-2-butanesulfonamide], the EC50 is 30 nM.
